Measured values reported in US9382295B2, “Cyclic depsipeptide compounds and their uses” (Cypralis Limited, priority 2012, dated 2016).
pKi: −log10 of the molar value. Values after ≈ are worked out from the molar mass of the structure shown. Numbered stars: 1 amine (or outer) side, 2 acyl side, 3 side chain; on linkers, the order of the positions; unused ones are H or OH. Square brackets hold non-standard residues; d marks the D form. Peptide text beside a SMILES is read from it. X10 = Cc1cccc(/C=C/C[C@@H](C)[C@@H](O)[C@H](C(=O)[*:2])N(C)[*:1])n1; X21 = C[C@H](CCN(C)C1CCOCC1)[C@@H](O)[C@H](C(=O)[*:2])N(C)[*:1]; X23 = COC1CN(CC[C@@H](C)[C@@H](O)[C@H](C(=O)[*:2])N(C)[*:1])C1; X31 = COCCN(C)CC[C@@H](C)[C@@H](O)[C@H](C(=O)[*:2])N(C)[*:1]; X16 = C[C@H](CCN1CCOCC1)[C@@H](O)[C@H](C(=O)[*:2])N(C)[*:1]; d(aThr) = C[C@@H](O)[C@@H](N)C(=O)O; NMeL = CN[C@@H](CC(C)C)C(=O)O; dNMeL = CN[C@H](CC(C)C)C(=O)O; dNMeV = CN[C@@H](C(=O)O)C(C)C; Hiv = CC(C)[C@H](O)C(=O)O; dAbu = CC[C@@H](N)C(=O)O; Sar = CNCC(=O)O

Key:
[1] = biological target: cyclophilin D (Cyp D) (Homo sapiens, UniProt P30405); assay: Protease-free PPIase assay, cyclophilin D; type: biochemical
Chain of cyclophilin D (Cyp D) (P30405 30-207): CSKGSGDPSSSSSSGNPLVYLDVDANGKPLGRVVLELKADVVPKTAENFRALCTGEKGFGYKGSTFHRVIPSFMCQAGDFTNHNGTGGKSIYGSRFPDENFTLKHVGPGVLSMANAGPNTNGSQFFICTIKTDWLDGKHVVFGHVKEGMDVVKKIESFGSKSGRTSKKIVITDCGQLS
Procedure: (§1) The protease-free PPIase assay measures the rate of cis to trans conversion of a peptide substrate catalyzed by the enzymes cyclophilin A and cyclophilin D. Addition of a cyclophilin inhibitor (e.g., a test compound) slows the catalyzed rate and a Ki value is obtained. […] 35 mM HEPES pH 7.8, filtered through a 0.2 μm filter. 50 μM DTT was added prior to use each day and then the buffer was stored on ice. Succinimide-[…]) (from Bachem AG, L-1400), 20 mg/ml prepared in 0.5 M LiCl in trifluoroethanol. All readings were taken with an Agilent 8453 Spectrophotometer which consists of a cuvette holder, stirrer and chiller to maintain a stirred cuvette temperature of 10.0±0.1° C. The temperature is monitored by the use of temperature probe. […] The inhibitor was diluted in 100% DMSO, and then added to the assay to a maximum final concentration of 0.5% DMSO in the assay. A blank spectrum was obtained, then 3 μL of enzyme was added (2 nM final concentration) and then 3 μL substrate (60 μM final concentration) added. The absorbance was measured at 330 nm for 300 s or 500 s for blank runs (NOTE: the substrate must be added in one quick injection and the measurements started immediately to minimize mixing errors). A first order rate equation was fitted to the absorbance data, for each concentration of inhibitor, to obtain the rate constant (the first 10 to 15 seconds were excluded as mixing causes errors in this portion of curve). The catalytic rate was calculated from the enzymatic rate constant minus the background rate constant. An exponential curve was generated using the catalytic rate constants versus the inhibitor concentration to obtain the Ki value for the inhibitor. The Ki value is indicative of the binding affinity between the test compound and cyclophilin A or cyclophilin D.

[2] = Water solubility assay (pH 7.8 buffer); type: physicochemical; conditions: pH 7.8
Procedure: ***Water Solubility Assay (Measured in pH 7.8 Buffer)
The onset of precipitation, if it occurred, was detected by an increase in absorbance at 650 nm.
Assay Buffer: 35 mM HEPES pH 7.8
Stock solutions of Control and Test Compounds: 10 mM in 100% DMSO
10 mM stock solutions of control and test compounds were prepared in 100% DMSO. A series of dilutions were prepared from the stock in DMSO so that the final concentrations in the assay were 0, 3.33, 10, 25, 50, 75 and 100 μM and DMSO was limited to 1%.
Assay buffer (247.5 μl) was placed into flat bottomed transparent 96-well plate. For blank samples DMSO (2.5 μl) was added. For test and control samples 2.5 μl of the appropriate DMSO dilution stocks were added to the appropriate well. All test and control compounds were performed in triplicate.
The plates were sealed with adhesive plate seal and shaken at 250 rpm at 25° C. for 18 h on a plate shaker.
After incubation the plate seals were taken off and any bubbles observed in wells removed. The plates were read on a SpectraMaxM5 with a 5 s pre-shake at 650 nm.
Data files were transferred to the appropriate worksheet and the solubility range of the compounds was calculated from the data.
The values shown in the tables indicate the concentration in μM (micromolar) at which the compound remains in solution.

[3] = biological target: T1, cyclophilin A (Cyp A) (Homo sapiens, UniProt P62937); assay: Protease-free PPIase assay, cyclophilin A; type: biochemical
T1 construct: purchased Sigma C3805
T1 sequence (P62937 whole entry): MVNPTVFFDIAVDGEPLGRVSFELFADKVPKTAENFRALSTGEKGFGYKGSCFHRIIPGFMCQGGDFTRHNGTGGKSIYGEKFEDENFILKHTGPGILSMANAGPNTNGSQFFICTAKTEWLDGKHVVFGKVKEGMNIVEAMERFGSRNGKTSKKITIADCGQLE
Procedure: as §1, with “ice. Human recombinant cyclophilin A (Cyp A) (Sigma C3805) enzyme was diluted to 1 μM with enzyme dilution buffer (20 mM HEPES pH 7.8, 40% glycerol, 50 μM DTT and 1 μM BSA) and stored at -20° C.” for “ice.”

For `COCCN(C)CC[C@@H](C)[C@@H](O)[C@@H]1C(=O)N[C@H]([C@@H](C)O)C(=O)N(C)CC(=O)N(C)[C@@H](CC(C)C)C(=O)N[C@H](CC(C)C)C(=O)N(C)[C@H](CC(C)C)C(=O)N[C@H](C)C(=O)O[C@@H](C(C)C)C(=O)N(C)[C@H](CC(C)C)C(=O)N[C@H](CC(C)C)C(=O)N(C)[C@H](C(C)C)C(=O)N1C` [Example 10, cyclo-{(3R,4R,5S)-4-(hydroxy)-3-methyl-5-(methylamino)-1-N-[(2-methoxy-ethyl)-methyl-amino]-hexanoic acid-Thr-Sar-MeLeu-Leu-MeLeu-Ala-D-Hiv-MeLeu-Leu-MeVal}] (cyclo([Hiv][dNMeL][dL][dNMeV][X31][d(aThr)][Sar][NMeL][dL][dNMeL][dA])), the pKi [1] was 7.60 to 9.00, the solubility at 18 h [2] was > 100 µM and the pKi [3] was 7.00 to 7.60.
In the case of `COC1CN(CC[C@@H](C)[C@@H](O)[C@@H]2C(=O)N[C@H]([C@@H](C)O)C(=O)N(C)CC(=O)N(C)[C@@H](CC(C)C)C(=O)N[C@H](CC(C)C)C(=O)N(C)[C@H](CC(C)C)C(=O)N[C@H](C)C(=O)O[C@@H](C(C)C)C(=O)N(C)[C@H](CC(C)C)C(=O)N[C@H](CC(C)C)C(=O)N(C)[C@H](C(C)C)C(=O)N2C)C1` [Example 11, cyclo-{(3R,4R,5S)-4-(hydroxy)-3-methyl-5-(methylamino)-1-N-(3-methoxy-azetidinyl)-hexanoic acid-Thr-Sar-MeLeu-Leu-MeLeu-Ala-D-Hiv-MeLeu-Leu-MeVal}] (cyclo([Hiv][dNMeL][dL][dNMeV][X23][d(aThr)][Sar][NMeL][dL][dNMeL][dA])), the pKi [1] was 7.60 to 9.00, the solubility at 18 h [2] was > 100 µM and the pKi [3] was 7.60 to 9.00.
For `CC(C)C[C@@H]1C(=O)N[C@H](CC(C)C)C(=O)N(C)[C@H](C(C)C)C(=O)N(C)[C@H]([C@H](O)[C@H](C)CCN(C)C2CCOCC2)C(=O)N[C@H]([C@@H](C)O)C(=O)N(C)CC(=O)N(C)[C@@H](CC(C)C)C(=O)N[C@H](CC(C)C)C(=O)N(C)[C@H](CC(C)C)C(=O)N[C@H](C)C(=O)O[C@@H](C(C)C)C(=O)N1C` [Example 12, cyclo-{(3R,4R,5S)-4-(hydroxy)-3-methyl-5-(methylamino)-1-N-(methyl-(tetrahydro-pyran-4-yl)-amino)-hexanoic acid-Thr-Sar-MeLeu-Leu-MeLeu-Ala-D-Hiv-MeLeu-Leu-MeVal}] (cyclo([Hiv][dNMeL][dL][dNMeV][X21][d(aThr)][Sar][NMeL][dL][dNMeL][dA])), the pKi [1] was 7.60 to 9.00, the solubility at 18 h [2] was > 100 µM and the pKi [3] was 7.00 to 7.60.
Work on `CC[C@H]1NC(=O)[C@@H]([C@H](O)[C@H](C)CCN2CCOCC2)N(C)C(=O)[C@@H](C(C)C)N(C)C(=O)[C@@H](CC(C)C)NC(=O)[C@@H](CC(C)C)N(C)C(=O)[C@H](C(C)C)OC(=O)[C@@H](C)NC(=O)[C@@H](CC(C)C)N(C)C(=O)[C@@H](CC(C)C)NC(=O)[C@H](CC(C)C)N(C)C(=O)CN(C)C1=O` [Example 13, cyclo-[(3R,4R,5S)-4-(hydroxy)-3-methyl-5-(methylamino)-1-N-morpholino-hexanoic acid-Abu-Sar-MeLeu-Leu-MeLeu-Ala-D-Hiv-MeLeu-Leu-MeVal]] (cyclo([Hiv][dNMeL][dL][dNMeV][X16][dAbu][Sar][NMeL][dL][dNMeL][dA])) yielded a pKi [1] of 7.60 to 9.00, a solubility at 18 h [2] of 25 to 50 µM (≈ 32.3 to 64.5 µg/mL) and a pKi [3] of 7.60 to 9.00.
For `Cc1cccc(/C=C/C[C@@H](C)[C@@H](O)[C@@H]2C(=O)N[C@H]([C@@H](C)O)C(=O)N(C)CC(=O)N(C)[C@@H](CC(C)C)C(=O)N[C@H](CC(C)C)C(=O)N(C)[C@H](CC(C)C)C(=O)N[C@H](C)C(=O)O[C@@H](C(C)C)C(=O)N(C)[C@H](CC(C)C)C(=O)N[C@H](CC(C)C)C(=O)N(C)[C@H](C(C)C)C(=O)N2C)n1` [Example 14, cyclo-[(3R,4R,5S)-4-(hydroxy)-3-methyl-5-(methylamino)-1-(6-methyl-pyridin-2-yl)-hept-1-enoic acid-Thr-Sar-MeLeu-Leu-MeLeu-Ala-D-Hiv-MeLeu-Leu-MeVal]] (cyclo([Hiv][dNMeL][dL][dNMeV][X10][d(aThr)][Sar][NMeL][dL][dNMeL][dA])), the pKi [1] was 7.60 to 9.00, the solubility at 18 h [2] was 10 to 25 µM (≈ 13.2 to 33.1 µg/mL) and the pKi [3] was 7.60 to 9.00.
